For three molecules, IC50 results are on record in ChEMBL document CHEMBL3091420, “Synthesis and biochemical evaluation of highly enantiomerically pure (R,R)- and (S,S)-alexidine” (Bioorg Med Chem, 2013).

Counter-ions that a name gives are not always drawn.

Sequence of Bcl-xL/BAK (Q07817 whole entry): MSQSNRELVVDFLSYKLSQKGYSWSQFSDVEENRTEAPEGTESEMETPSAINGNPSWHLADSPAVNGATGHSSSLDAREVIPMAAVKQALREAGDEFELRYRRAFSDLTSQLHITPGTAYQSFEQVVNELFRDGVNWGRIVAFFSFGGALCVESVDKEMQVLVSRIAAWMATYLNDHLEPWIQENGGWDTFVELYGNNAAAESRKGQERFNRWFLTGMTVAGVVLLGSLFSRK
Sequence of Bcl-xL/BAK (Q16611 whole entry): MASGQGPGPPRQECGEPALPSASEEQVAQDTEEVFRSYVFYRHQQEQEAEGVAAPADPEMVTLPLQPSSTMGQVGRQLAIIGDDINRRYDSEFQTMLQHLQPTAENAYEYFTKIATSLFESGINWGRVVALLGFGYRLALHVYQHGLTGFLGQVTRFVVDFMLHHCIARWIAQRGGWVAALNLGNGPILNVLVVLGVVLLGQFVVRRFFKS

This assay addresses Bcl-xL/BAK (Homo sapiens, UniProt Q07817+Q16611). As to the kind of experiment: Inhibition of Bcl-xL (1 to 206, delta 45 to 84)-BAK (unknown origin) protein interaction by fluorescence polarization assay. Background: Polarisation of emitted light reports the rotation of a fluorescent probe.
`CCCC[C@@H](CC)CNC(=N)NC(=N)NCCCCCCNC(=N)NC(=N)NC[C@H](CC)CCCC`: the IC50 (in general, the concentration that inhibits the measured activity by half) was determined as 21.3 µM.

In turn, `CCCCC(CC)CNC(=N)NC(=N)NCCCCCCNC(=N)NC(=N)NCC(CC)CCCC` (mixture of isomers) [ALEXIDINE DIHYDROCHLORIDE] returned an IC50 of 18.3 µM.

In the case of `CCCC[C@H](CC)CNC(=N)NC(=N)NCCCCCCNC(=N)NC(=N)NC[C@@H](CC)CCCC`, the IC50 was 25.7 µM. The IC50 values of the last two molecules are within 1.5-fold of each other.
